Patent US10059699B2, “Tetrahydroquinoline derivatives as bromodomain inhibitors” (GlaxoSmithKline Intellectual Property (No.2) Limited, priority 2014, dated 2018)
Where two headings read alike, the source gives them in different places. Marks after values point to notes of the source that are not given here.

How the values were obtained:
[1] = system: IL-6; assay: LPS induced secretion of IL-6 from whole blood; assay type: cell-based; conditions: human whole blood, LPS 200 ng/mL, n=6; read-out: pIC50, LPS induced IL-6 secretion (converted)
Description: Activation in whole blood of predominantly monocytic cells by agonists of toll-like receptors such as bacterial lipopolysaccharide (LPS) results in production of key inflammatory mediators, including IL-6. Such pathways are widely considered to be central to the pathophysiology of a range of auto-immune and inflammatory disorders.
Human Whole Blood from 2 donors (n=2) is collected using Sodium heparin as anti-coagulent (Wockhardt cat# FP1712) (10 units of heparin/mL of blood). Compounds were prepared as [10 mM] DMSO stocks and then diluted such that the top starting concentration was [1.4 mM] followed by 8×3-fold dilutions in DMSO. Final assay concentrations start at [10 μM] for all compounds. 1 μL diluted compound was added per well in a 96-well U bottom plate. 1 μL DMSO only was added to column 10 (+ve control) and 1-((2S,4R)-2-methyl-4-(phenylamino)-6-(4-(piperidin-1-ylmethyl)phenyl)-3,4-dihydroquinolin-1(2H)-yl)ethanone (for a preparation see Compound 28, J. Med. Chem. 2014, 57, 8111-8131, 1 μL, 1.4 mM) added to column 11 (−ve control). […] 150 μL of 2×MSD Read Buffer T (stock 4×MSD Read Buffer T was diluted 50:50 with de-ionised water) was then added to each well and the plates read on the MSD Sector Imager 6000. Concentration response curves for each compound were generated from the data using internal XC50 analysis and an IC50 value was calculated.

[2] = system: Immunoglobulin-1 (IgG1); assay: TNP-KLH induced IgG1 production mouse assay; assay type: in vivo, mice; conditions: 30 mg/kg oral; for Day 14 IgG1: 14 day dosing, male CD1 mice; for % reduction in IgG1 from vehicle: day 14
Procedure: The compound was assayed for its ability to inhibit trinitrophenol-keyhole limpet hemocyanin (TNP-KLH) induced Immunoglobulin-1 (IgG1) production in mice. Male CD1 mice (Charles River Laboratories, 8 per group) received a single oral administration of compound (in 1% (w/v) methylcellulose, aq 400) either once every day (QD), once every other day (QOD) or once every 72 hours (QOED) over a 14 day dosing period. On day 1 of the study, each mouse received a single bolus intraperitoneal (ip) administration of TNP-KLH (100 μg/kg, T-5060-25, Lot #021562-06) 1 hour after oral administration of compound. Serial blood samples were collected at 1 hour post oral compound administration via tail veil on days 1, 4, 7, 9 and 11 or via cardiac puncture (terminal sample) on day 14 and the serum harvested from the blood samples was frozen at −80° C. On the day of analysis, the serum was thawed to room temperature and levels of IgG1 were measured using a TNP ELISA (developed in-house) and read on a SpectraMax 190 spectrophotometer (Molecular Devices, CA). The mean IgG1 values were generated and the mean percent IgG1 reduction on day 14 following treatment with compound was calculated compared to the corresponding vehicle treated group. Levels of significance were calculated by analysis of variance (ANOVA) followed by Dunnett's multiple comparison t-test using Graphpad Prism version 5.04 (Graphpad Software, San Diego, Calif.). Statistical differences were determined as […].

[3] = system: multiple myeloma cells (OPM-2); assay: Cancer cell line proliferation assay, OPM-2; assay type: cell-based; conditions: Homo sapiens, OPM-2 cells, 72 hours, CellTiter Glo, n = 2
Procedure: The impact of the compound of Examples 7 and 14 on cancer cell proliferation was determined using patient derived NUT midline carcinoma cells (11060), multiple myeloma cells (OPM-2, DSMZ) and biphenotypic B myelomonocytic leukaemia cells (MV-4-11, ATCC) in a 72 hour proliferation assay. 11060 and OPM-2 cells were maintained in RPMI 1640 medium (Invitrogen) supplemented with 10% HI-FBS (Heat-Inactivated Fetal Bovine Serum, Hyclone) and 2 mM L-glutamine (Invitrogen) at 37° C. and an atmosphere of 5% CO2. MV-4-11 cells were maintained in IMDM media supplemented with 10% HI-FCS, 2 mM L-glutamine, 1× Non-essential amino acids (Invitrogen) and 1× sodium pyruvate (1 mM) (Invitrogen). Cells were diluted to 1.11×10^5 cells/mL and 90 μL/well plated into black sided, clear bottomed 96 well tissue culture plates (Corning), using growth media supplemented with penicillin/streptomycin (Invitrogen). Cells were incubated overnight at 37° C. and in one plate, ATP levels were measured using the CellTiter Glo assay (Promega) according to the manufacturer's instructions, to give a baseline reading (t=0). 3-fold serial dilutions of compounds ranging from 6 mM to 0.3 μM were prepared in 100% DMSO. The DMSO dilution series was diluted 20-fold in growth media before 10 μl of the resulting dilutions were added to the appropriate wells of the remaining cell plates. The final compound concentrations in the wells ranged from 30 μM to 1.5 nM in 0.5% DMSO. Cells were incubated with compounds for 72 hours before assaying for ATP content using CellTiter Glo (t=72). CellTiter Glo data from each t=72 time point was normalised to the relevant t=0 time point data, and expressed as % t=0.

Compound: CC(=O)N1c2ccc(C(N)=O)cc2[C@H](Nc2ncc(Cl)cn2)C[C@@H]1C [Example 14, (2S,4R)-1-acetyl-4-((5-chloropyrimidin-2-yl)amino)-2-methyl-1,2,3,4-tetrahydroquinoline-6-carboxamide]
- IC50 [1]: 200 nM
- Day 14 IgG1 ([2]; QD): 127 ng/mL
- % reduction in IgG1 from vehicle ([2]; QD): 98*** %
- Day 14 IgG1 ([2]; QOD): 373 ng/mL
- % reduction in IgG1 from vehicle ([2]; QOD): 93*** %
- Day 14 IgG1 ([2]; QOED (every 72 hours)): 3162 ng/mL
- % reduction in IgG1 from vehicle [2]: 41%
- IC50 ([3]; full curve fit, read-out: Cellular Proliferation: pIC50 (converted)): 200 nM
- IC50 ([3]; read-out: Cellular Proliferation: gpIC50 (converted)): 126 nM
